These results are taken from US10278942B2 (PELOTON THERAPEUTICS, INC., priority 2015, dated 2019).

For data set [1], the system named is rats with hypoxia/semaxanib induced pulmonary arterial hypertension. Put plainly: Effect of HIF-2α inhibition in a model of active PAH (Example 37, interventional). The text has this: Rats were kept in hypoxic conditions for the duration of this study. On the fourteenth day of test article dosing, the rats were anesthetized with ketamine/xylazine for terminal monitoring of pulmonary and systemic arterial pressures along with heart rate. […]

Data set [2] has the same test system. Put plainly: Prevention of PAH by a HIF-2α inhibitor (Example 36). As for the experimental part: Two rats not exposed to either semaxanib or hypoxia served as hypertrophic sentinels for this study. Rats received a single injection of semaxanib (200 mg/kg, s.c.) on the same day as initiation of test article dosing and introduction to the hypoxic chamber. Rats were kept in hypoxic conditions for the duration of this study. On the twenty-eighth day of test article dosing, the rats were anesthetized with ketamine/xylazine for terminal monitoring of pulmonary and systemic arterial pressures along with heart rate. […]

The test system of a further data set is 786-O-Hif-Luc cells. Put plainly: Luciferase Assay (HIF responsive elements reporter). Particulars: read-out: Mean Luciferase EC50 (nM), 786-O-Hif-Luc cells.
For another data set, the system named is 786-O cells. Put plainly: VEGF ELISA Assay. The following applies: Homo sapiens, 786-0. Type of data set: cell-based. An outline of the steps: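 Secreted VEGF measured by ELISA, with EC50 from a four-parameter dose-response fit. Viability of the same plate read afterwards by CellTiter-Glo luminescence.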
Data set [3] addresses T1, HIF-2α HIS TAG-PASB Domain (Homo sapiens, UniProt Q99814).
T1 construct: 100 nM HIF-2α HIS TAG-PASB Domain
Put plainly: HIF-2α Scintillation Proximity Assay (SPA). Type of data set: binding. The following applies: read-out: Scintillation Proximity Assay IC50. The gist of the method:
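IC50 values rest on percent inhibition, where the sample signal is scaled between high and low controls. Wells contain about 100 μL: compound dispensed as 2 μL of DMSO solution, 88 μL protein-probe mix and 10 μL of beads.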
On the technique in general: Scintillation proximity formats need no separation of bound from free tracer.

The mark [4] stands for this setting: active PAH, 60/day bid oral Days 15 to 28, Mean ± SEM.
Setting [5] is: active PAH, Group 4, 60 mg/kg/day 14 days.
Setting [6] is: prevention, 60/day bid oral 28 days, Mean ± SEM.
The mark [7] stands for this setting: prevention, Group 4, 30 mg/kg BID.

A word on the EC50: it is the midpoint of the concentration-response curve. As usually defined, the IC50 is the concentration at which inhibition is half-maximal.

Molecules are shown by their SMILES.

T1 sequence (Q99814 240-350 limits assumed): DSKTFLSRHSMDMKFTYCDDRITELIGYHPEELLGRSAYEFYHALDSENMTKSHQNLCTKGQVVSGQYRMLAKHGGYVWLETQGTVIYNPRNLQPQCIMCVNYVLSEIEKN
Procedure for 786-O-Hif-Luc cells: A pool of infected cells were then selected against 2 μg/mL of puromycin (P8833, Sigma) for 10 days followed by limited dilution to select single clones. […] Each concentration was tested in triplicate. After about 24 hours, luciferase activity was determined using ONE-Glo Luciferase Assay Reagent (E6110, Promega) following the manufacturer's recommended procedure. EC50 were calculated using Dotmatics software.

`CCCc1nn(C)c2c(=O)[nH]c(-c3cc(S(=O)(=O)N4CCN(C)CC4)ccc3OCC)nc12` [sildenafil]: in data set [1] (setting [4]), the “Heart Wt” value was found to be 1.25 g, the “LV Wt” value is 0.75 g, the LW/BW is 6.68 and the “Lung Wt” value is on record as 2.36 g. For the same compound, in data set [1] (setting [4]), the MAP came out at 93 mm Hg, the “Mean PAP” value was found to be 36 mm Hg, the “RV Wt” value amounted to 0.35 g and the RV/BW worked out at 0.98. In data set [1] (setting [4]), the “RV/LV + S” value came out at 0.46 and the “Systolic PAP” value is recorded as 56 mm Hg. Moreover, in data set [1] (setting [5]), the “Group mean scores for smooth muscle hypertrophy” value is listed as 2.6, the “mean percentages of completely muscularized arterioles” value is on record as 47.2%, the “mean percentages of non-muscularized arterioles” value turned out to be 1.1% and the “mean percentages of partially muscularized arterioles” value worked out at 51.7%. Further, in data set [1] (active PAH, compared to vehicle), the pulmonary hypertrophy entry is given as “reductions in pulmonary hypertrophy”. Further, the “reduction in RV/BW ratio” value in data set [1] (active PAH, sildenafil 30 mg/kg twice daily, p<0.05) came to 21%. In addition, in data set [1] (rat, in vivo), the “heart rate compared to vehicle” value is recorded as “No substantive differences”. Further, in data set [1] (rat, in vivo, po), the “Body Weight” value is reported as 0.35 kg and the HR worked out at 298 bpm. In data set [2] (Fulton's Index, prevention, 60/day bid oral 28 days, Mean ± SEM), the “RV/LV + S” value was 0.52 ± 0.04. Also, in data set [2] (setting [6]), the “Heart Wt” value came to 1.23 ± 0.03 g, the “LV Wt” value was determined as 0.71 ± 0.02 g, the “Lung Wt” value turned out to be 2.39 ± 0.07 g and the MAP worked out at 92 ± 2 mm Hg. In data set [2] (setting [6]), the “Mean PAP” value is listed as 38 ± 3 mm Hg, the “RV Wt” value stood at 0.36 ± 0.03 g, the RV/BW worked out at 1.12 ± 0.10 and the “Systolic PAP” value was found to be 55 ± 5 mm Hg. In addition, in data set [2] (setting [7]), the “mean percentages of completely muscularized arterioles” value is 58.7%, the “mean percentages of non-muscularized arterioles” value is listed as 1.1% and the “mean percentages of partially muscularized arterioles” value came to 40.2%. For the same compound, in data set [2] (prevention, Group 4, 30 mg/kg BID, lung histopathology), the “Group mean scores for smooth muscle hypertrophy” value is given as 3.4. For the same compound, the “pulmonary arteriolar smooth muscle hypertrophy compared to vehicle” value in data set [2] (prevention, histopathology evaluation and arteriole counts) is listed as “slight decrease”. The “protection versus vehicle (systolic pulmonary arterial pressure)” value in data set [2] (prevention, sildenafil group) was “showed protection versus vehicle”. Further, in data set [2] (rat, in vivo), the “heart rate compared to vehicle” value is on record as “No notable differences”. The compound further gave an HR in data set [2] (rat, in vivo, po) of 289 ± 11 bpm.

In the case of `CS(=O)(=O)c1ccc(O[C@H]2C[C@@H](C#N)C2)c2c1[C@H](O)C(F)(F)[C@@H]2F` [Compound 761], the EC50 in the data set on 786-O-Hif-Luc cells and in the data set on 786-O cells was 50 to 249 nM throughout. Further, in data set [3], the IC50 is < 50 nM.

In the case of `N#Cc1cc(F)cc(Nc2ccc(S(=O)(=O)C(F)(F)F)c3c2CC(F)(F)[C@H]3O)c1` [Compound 489, (S)-3-((2,2-difluoro-1-hydroxy-7-((trifluoromethyl)sulfonyl)-2,3-dihydro-1H-inden-4-yl)amino)-5-fluorobenzonitrile], the EC50 with 786-O-Hif-Luc cells and in the data set on 786-O cells was < 50 nM each time. Moreover, the IC50 in data set [3] was < 50 nM.

On to `N#Cc1cc(Oc2ccc(S(=O)(=O)C(F)(F)F)c3c2CC(F)(F)[C@H]3O)ccc1F` [Compound 228], for which the EC50 in the data set with 786-O-Hif-Luc cells and in the data set on 786-O cells was < 50 nM in each case. Also, the IC50 in data set [3] is < 50 nM.

Turning to `O=S(=O)(c1ccc(Oc2cc(F)c[n+]([O-])c2)c2c1[C@H](O)C(F)(F)C2)C(F)(F)F` [Compound 310], the EC50 in the data set on 786-O-Hif-Luc cells and in the data set with 786-O cells was 50 to 249 nM in each case. For the same compound, the IC50 in data set [3] was < 50 nM.

For `O=S(=O)(CF)c1ccc(OC2CC(F)(F)C2)c2c1[C@H](O)C(F)(F)[C@@H]2F` [Compound 576, (1S,3R)-4-(3,3-difluorocyclobutoxy)-2,2,3-trifluoro-7-((fluoromethyl)sulfonyl)-2,3-dihydro-1H-inden-1-ol], the EC50 is < 50 nM in the data set on 786-O-Hif-Luc cells and 50 to 249 nM in the data set on 786-O cells. The IC50 in data set [3] was < 50 nM.

Take `N#CC1(COc2ccc(S(=O)(=O)C(F)(F)F)c3c2CC(F)(F)C3O)CC1` (stereo not drawn) [Compound 620]: the EC50 with 786-O-Hif-Luc cells and with 786-O cells was 50 to 249 nM throughout. Moreover, the 50% inhibitory concentration (IC50) in data set [3] is 50 to 249 nM.

On to `CC(C)COc1ccc(S(=O)(=O)C(F)(F)F)c2c1CC(F)(F)[C@H]2O` [Compound 709], for which the EC50 in the data set with 786-O-Hif-Luc cells and in the data set on 786-O cells was < 50 nM throughout. Moreover, the IC50 in data set [3] is < 50 nM.

Turning to `O=S(=O)(c1ccc(CCO)c2c1C(O)CC2)C(F)(F)F` (stereo not drawn) [Compound 495, 4-(2-hydroxyethyl)-7-((trifluoromethyl)sulfonyl)-2,3-dihydro-1H-inden-1-ol], the EC50 is > 1000 nM with 786-O-Hif-Luc cells and 250 to 1000 nM in the data set with 786-O cells. Moreover, in data set [3], the IC50 is > 1000 nM.

As for `CC1(O)c2c(ccc(Oc3cc(F)cc(F)c3)c2C#N)S(=O)(=O)C1(F)F` (stereo not drawn) [Compound 446], the EC50 with 786-O-Hif-Luc cells and with 786-O cells was < 50 nM each time. Moreover, in data set [3], the IC50 is < 50 nM.

With `O=S(=O)(c1ccc(Oc2cncc(F)c2)c2c1[C@H](O)C(F)(F)C2)C(F)(F)F` [Compound 309], the EC50 in the data set on 786-O-Hif-Luc cells and in the data set on 786-O cells was < 50 nM in each case. Also, in data set [3], the IC50 was < 50 nM.

As for `O=S(=O)(c1ccc(OCC2CC2)c2c1[C@H](O)C(F)(F)C2)C(F)(F)F` [Compound 656], the EC50 in the data set with 786-O-Hif-Luc cells and in the data set on 786-O cells was < 50 nM throughout. Besides, the IC50 in data set [3] was < 50 nM.

For the compound `CCCOc1ccc(S(=O)(=O)C(F)(F)F)c2c1CC(F)(F)[C@H]2O` [Compound 655], the EC50 in the data set with 786-O-Hif-Luc cells and in the data set with 786-O cells was < 50 nM throughout. For the same compound, in data set [3], the IC50 is < 50 nM.

As to `O=S(=O)(c1ccc(OCC(F)F)c2c1[C@H](O)C(F)(F)C2)C(F)(F)F` [Compound 571], the EC50 in the data set on 786-O-Hif-Luc cells and in the data set with 786-O cells was < 50 nM each time. The IC50 in data set [3] is < 50 nM.

Take `O=S(=O)(c1ccc(Oc2ccc(F)c(F)c2)c2c1[C@H](O)C(F)(F)C2)C(F)(F)F` [Compound 233]: the EC50 in the data set with 786-O-Hif-Luc cells and with 786-O cells was < 50 nM throughout. Further, the half-inhibitory concentration (IC50) in data set [3] was < 50 nM.

As for `O=S(=O)(c1ccc(OC2CCOCC2)c2c1[C@H](O)C(F)(F)C2)C(F)F` [Compound 783], the EC50 in the data set on 786-O-Hif-Luc cells was < 50 nM; in the data set with 786-O cells it was 50 to 249 nM. Besides, the IC50 in data set [3] was < 50 nM.

As for `CS(=O)(=NC#N)c1ccc(Oc2cc(F)cc(C#N)c2)c2c1[C@H](O)C(F)(F)C2` (single isomer, unassigned) [Compound 240], the figures for the EC50 with 786-O-Hif-Luc cells and in the data set on 786-O cells were < 50 nM and 50 to 249 nM, respectively. Besides, the IC50 in data set [3] is < 50 nM.
